Experimental data from patent US20230143604A1, “QW DOSING OF GIP RECEPTOR AGONIST PEPTIDE COMPOUNDS AND USES THEREOF” (TAKEDA PHARMACEUTICAL COMPANY LIMITED, priority 2020, published 2023).
Read-outs that look alike come from different tables or passages of the source.

Key:
[1] = test system: Dogs; type: in vivo; conditions: 30 nmol/kg s.c.
Experimental: Dogs are transferred to an observation cage (700 mm W×700 mm D×700 mm H [W×D×H], without food) on 1 day before each apomorphine challenge. The dogs are weighed by using an electronic balance then test peptide compounds and vehicle will be administrated via the subcutaneous route. Apomorphine is challenged at 8 hr after the administration and emetic events will be monitored for 1 h by video recording. The second apomorphine challenge will be 72 hr after the administration and emetic events will be recorded by the same protocol. Emesis symptoms are continuously recorded using a video camera and stored on a blue ray disc. Observation of symptoms include retching (a rhythmic contraction of the abdomen) and vomiting (vomiting behavior, including the elimination of vomitus or similar behavior). Besides, the combination of retching and vomiting is defined as emesis, and the number of episodes, latency (time elapsed from morphine administration until the onset of the first emesis symptom), duration (time elapsed between the onset of the first and final episodes of emesis), and frequency (number of animals showing emesis/number of experimental animals) of each of these symptoms is calculated. The latency in cases where emesis symptoms are not noted is taken as the maximum value (1 h for apomorphine challenge) at the end of observation. When the duration of the emesis symptoms is less than 1 min, the duration is recorded, for convenience, as 1 min.

[2] = test system: female beagle dogs; assay: PYY-1119-induced vomiting in dogs; type: in vivo; conditions: 3 nmol/kg s.c., 72 hours post-dose (lower line)
Experimental: The GIPR agonist peptide compounds of the present disclosure or vehicle (0.09% [w/v] Tween 80/10% DMSO/PBS) were administered subcutaneously (sc) at 3-10 nmol/kg to female beagle dogs (10 months old), followed by sc injections with Y2R agonist ((4-imidazolecarbonyl-Ser-D-Hyp-Iva-Pya(4)-Cha-Leu(Me)-Asn-Lys-Aib-Thr-Arg-Gln-Arg-Cha-NH2), […]), […]) at 1 hour or specified hours in the table postdose. Emetic episodes were counted for 2 hours after administration (by blinded analysis).

[3] = physchem
Summary of the method: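 Solubility at pH 7.4 determined by stepwise addition of 200 mM phosphate buffer in 100 μL increments to 3 mg peptide, mixing briefly each time, until no insoluble material remained, then measured by liquid chromatography.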

[4] = Pharmacokinetics in dog after IV and SC dosing; conditions: in vivo, 3 nmol/kg
Summary of the method: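 Dogs were dosed IV or SC at 1 mL/kg with peptide at 3 nmol/mL in 10% DMSO/0.09% Polysorbate/PBS pH 7.4. K2-EDTA plasma was sampled to 336 h, and peptide was quantified by LCMS to derive half-life.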

With `CC[C@H](C)[C@H](NC(=O)[C@H](CO)NC(=O)[C@H](Cc1ccc(O)cc1)NC(=O)[C@H](CC(=O)O)NC(=O)[C@H](CO)NC(=O)[C@@H](NC(=O)[C@H](Cc1ccccc1)NC(=O)[C@@H](NC(=O)CNC(=O)[C@H](CCC(=O)O)NC(=O)C(C)(C)NC(=O)[C@H](Cc1ccc(O)cc1)NC)[C@@H](C)O)[C@@H](C)CC)C(=O)N[C@@H](C)C(=O)N[C@@H](CCCCNC(=O)CNC(=O)CNC(=O)CNC(=O)CNC(=O)CNC(=O)CCCCCCCCCCCCCCCCC(=O)O)C(=O)N[C@@H](CC(=O)O)C(=O)N[C@@H](CCCNC(=N)N)C(=O)NC(C)(C)C(=O)N[C@@H](C)C(=O)N[C@@H](CCC(N)=O)C(=O)NC(C)(C)C(=O)N[C@@H](CC(N)=O)C(=O)N[C@@H](Cc1ccccc1)C(=O)N[C@H](C(=O)N[C@@H](CC(N)=O)C(=O)N[C@@H](Cc1c[nH]c2ccccc12)C(=O)N[C@@H](CC(C)C)C(=O)N[C@@H](CC(C)C)C(=O)N[C@@H](C)C(=O)N[C@@H](CCC(N)=O)C(=O)N[C@@H](CO)C(=O)N1CCC[C@H]1C(=O)N[C@@H](CO)C(=O)N[C@@H](CO)C(=O)NCC(=O)N[C@@H](C)C(=O)N1CCC[C@H]1C(=O)N1CCC[C@H]1C(=O)N1CCC[C@H]1C(=O)N[C@@H](CO)C(=O)O)C(C)C` [Compound 45, Me-Y-Aib-E-G-T-F-I-S-D-Y-S-I-A-Km-D-R-Aib-A-Q-Aib-N-F-V-N-W-L-L-A-Q-S-P-S-S-G-A-P-P-P-S-OH] the “% inhibition of emetic events at doses (nmol/kg) shown in dog apomorphine model” value ([1]; after 8 hrs (upper)) was 70% (30 nmol/kg), the “% inhibition of emetic events at doses (nmol/kg) shown in dog apomorphine model” value ([1]; after 72 hours (lower)) was 72% (30 nmol/kg) and the “Inhibition (%) of PYY-1119-induced emetic event” value [2] was 90% (3 nmol/kg). For the same compound, the solubility ([3]; pH 7.4) was ≥ 15 mg/mL, the solubility ([3]; pH 7.4, aqueous buffer) was ≥ 60 mg/mL and the half-life ([4]; iv) was 2.58 days. The MRT last ([4]; sc) was 125 h.
